# Source: patent US11840521B2, “Modulators of Mas-related G-protein receptor X4 and related products and methods” (Escient Pharmaceuticals, Inc., priority 2019, dated 2023)
# Read-outs that look alike come from different tables or passages of the source.
# Target: MRGPRX4 (Homo sapiens, UniProt Q96LA9)
# Assay: MRGPR X4 antagonist activity, IP-One Gq HTRF assay in stably transfected HEK cells (versus agonist bilirubin, deoxycholic acid, conjugated bilirubin, urobilin, obeticholic acid or BAR502)
# Format: cell-based
# Parameters: expressed in transfected cells; host or cells: HEK cells, stably transfected
# Description: HEK cells stably transfected to express human MRGPR X4 were maintained in an incubator at 37° C. with 5% CO2 and grown in DMEM media with 10% fetal bovine serum (FBS) and 1% each of sodium pyruvate, Glutamax, penicillin/streptomycin, and Geneticin. HEK cells stably transfected to express mouse MRGPR A1 were maintained in the same incubator and grown in DMEM media with 10% FBS, 1% each of sodium pyruvate, Glutamax, penicillin/streptomycin, Geneticin, and 2.2 mg/mL Hygromycin.
# Cells were plated in a 384-well assay plate at 20,000 cells per well in 12 μL of Opti-MEM and kept in an incubator overnight. On the day of the assay, compounds solubilized at 10 mM in DMSO were added as a 10-point curve (10 uM final top concentration with 1:3 serial dilutions) using a Tecan D300E digital dispenser. […] Final concentrations of DMSO were kept consistent across the plate. Plates were incubated in the dark for 1 h at 37° C. and then for 30 minutes at room temperature. IP-1 standards and HTRF detection reagents were added according to the IP-One—Gq Kit purchased from Cisbio (part number 62IPAPEJ) and incubated in the dark for 1 h at room temperature. The plate was read on a Molecular Devices SpectraMax iD5 plate reader. The HTRF ratio was calculated from the raw data and graphed using GraphPad Prism to calculate an IC50 value for each compound.
# [1] = versus 10 μM Bilirubin agonist, HEK cells expressing human MRGPR X4, read-out: MRGPR4 Antagonist Activity
# [2] = versus 10 μM Bilirubin agonist, read-out: IC50 (Bilirubin agonist)
# [3] = versus 20 μM deoxycholic acid, read-out: IC50 (Deoxycholic Acid agonist)
# [4] = versus 20 μM obeticholic acid, read-out: IC50 (Obeticholic Acid Agonist)
# [5] = versus 50 μM urobilin, read-out: IC50 (Urobilin Agonist)
# [6] = versus 100 μM conjugated bilirubin, read-out: IC50 (Conjugated Bilirubin Agonist)
# MRGPRX4, sequence (Q96LA9 whole entry): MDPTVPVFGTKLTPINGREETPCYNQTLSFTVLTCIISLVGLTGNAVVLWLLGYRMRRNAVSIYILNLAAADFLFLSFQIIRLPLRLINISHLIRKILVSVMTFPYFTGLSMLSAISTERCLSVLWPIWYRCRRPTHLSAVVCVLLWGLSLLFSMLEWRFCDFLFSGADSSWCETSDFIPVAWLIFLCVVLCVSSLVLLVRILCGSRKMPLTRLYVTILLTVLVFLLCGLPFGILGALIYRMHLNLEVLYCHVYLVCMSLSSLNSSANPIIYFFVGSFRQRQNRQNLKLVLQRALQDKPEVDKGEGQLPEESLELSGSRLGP
SMILES,IC50 [1],also measured
O=C(O)c1cccc(COc2ccccc2Cl)c1F [Compound 4-29],> 2500 nM,–
Cc1ccc(C(=O)O)cc1COc1ccc(Cl)cc1Cl [Compound 8-2],1000 to 2500 nM,–
O=C(O)c1cc(COc2ccc(C(F)(F)F)cc2Cl)cc(-c2ccccc2)c1 [Compound 8-4],500 to 1000 nM,–
Cc1cc(C(F)(F)F)ccc1OCc1cc(F)cc(C(=O)O)c1 [Compound 9-2],< 100 nM,–
O=C(O)c1cc(F)cc(COc2ccc3ccccc3c2)c1 [Compound 9-3],< 100 nM,–
"O=C(O)c1cccc(COc2ccc(C(F)(F)F)cn2)c1 [Compound 10-1, 3-(((5-(trifluoromethyl)pyridin-2-yl)oxy)methyl)benzoic acid]",1000 to 2500 nM,–
"O=C(O)c1cc(COc2ccc(C(F)(F)F)cc2Cl)cc(C2CC2)c1 [Compound 11-1, 3-((2-chloro-4-(trifluoromethyl)phenoxy)methyl)-5-cyclopropylbenzoic acid]",< 100 nM,–
O=C(O)c1cccc(CNc2ccc3ccccc3c2)c1 [Compound 12-2],500 to 1000 nM,–
"NC(=O)c1cccc(COc2cccc(Cl)c2Cl)c1 [Compound 13-1, 3-((2,3-dichlorophenoxy)methyl)benzamide]",> 2500 nM,–
"O=C(O)c1cccc(CSc2ccc(Cl)cc2Cl)c1 [Compound 15-1, 3-(((2,4-dichlorophenyl)thio)methyl)benzoic acid]",100 to 500 nM,–
"O=C(O)c1cccc(Oc2ccc(Cl)cc2Cl)c1 [Compound 16-1, 3-(2,4-dichlorophenoxy)benzoic acid]",1000 to 2500 nM,–
O=C(O)c1cccc(Oc2ccc([N+](=O)[O-])cc2Cl)c1 [Compound 16-2],> 2500 nM,–
FC(F)(F)c1ccc(OCc2cccc(-c3nnn[nH]3)c2)cc1Cl [Compound 17-2],< 100 nM,–
FC(F)(F)c1cc(Cl)ccc1OCc1cccc(-c2nnn[nH]2)c1 [Compound 17-3],100 to 500 nM,–
Fc1ccc(OCc2cccc(-c3nnn[nH]3)c2)c(Cl)c1 [Compound 17-7],< 100 nM,–
FC(F)(F)Oc1ccc(OCc2cccc(-c3nnn[nH]3)c2)c(Cl)c1 [Compound 17-8],< 100 nM,–
Cc1cc(C(F)(F)F)ccc1OCc1cccc(-c2nnn[nH]2)c1 [Compound 17-11],< 100 nM,–
Cc1cc(Cl)ccc1OCc1cccc(-c2nnn[nH]2)c1 [Compound 17-13],< 100 nM,–
Fc1ccc(COc2ccc(C(F)(F)F)cc2Cl)cc1-c1nnn[nH]1 [Compound 17-16],< 100 nM,–
"N#Cc1cc(COc2ccc(C(F)(F)F)cc2Cl)cc(C(=O)O)c1 [Compound 32-1, 3-((2-chloro-4-(trifluoromethyl)phenoxy)methyl)-5-cyanobenzoic acid]",< 100 nM,IC50 [2]: 6 nM; IC50 [3]: 10 nM; IC50 [4]: 3 nM; IC50 [5]: 8 nM; IC50 [6]: 7 nM
N#Cc1cc(COc2ccc(Cl)c(Cl)c2Cl)cc(C(=O)O)c1 [Compound 32-3],< 100 nM,–
N#Cc1cc(COc2ccc(OC(F)(F)F)cc2Cl)cc(C(=O)O)c1 [Compound 32-4],< 100 nM,–
N#Cc1cc(COc2ccc(C(F)(F)F)c(Cl)c2)cc(C(=O)O)c1 [Compound 32-5],< 100 nM,–
"O=C(O)c1cccc(COc2ccccc2C(F)F)c1 [Compound 33-1, 3-((2-(difluoromethyl)phenoxy)methyl)benzoic acid]",> 2500 nM,–
O=C(O)c1cccc(COc2ccc(C(F)F)cc2)c1 [Compound 33-2],100 to 500 nM,–
O=C(O)c1cccc(COc2ccc(C(F)F)cc2Cl)c1 [Compound 33-3],< 100 nM,–
O=C(O)c1cccc(COc2ccc(C(F)F)cc2F)c1 [Compound 33-4],100 to 500 nM,–
"O=C(O)c1cccc(COc2ccc(C(F)(F)F)cc2C2CC2)c1 [Compound 34-1, 3-((2-cyclopropyl-4-(trifluoromethyl)phenoxy)methyl)benzoic acid]",500 to 1000 nM,–

# Continued, in another order:
IC50 [1],SMILES,also measured
< 100 nM,O=C(O)c1cccc(COc2ccc(C(F)(F)F)cc2)c1F [Compound 4-28],–
< 100 nM,"N#Cc1cc(COc2ccc(Cl)cc2Cl)cc(C(=O)O)c1 [Compound 5-1, 3-cyano-5-((2,4-dichlorophenoxy)methyl)benzoic acid]",IC50 [2]: 10 nM; IC50 [3]: 23 nM; IC50 [4]: 6 nM; IC50 [5]: 6 nM; IC50 [6]: 27 nM
1000 to 2500 nM,N#Cc1ccc(COc2ccc(Cl)cc2Cl)cc1C(=O)O [Compound 5-2],–
1000 to 2500 nM,"COc1c(COc2ccc(Cl)cc2Cl)cccc1C(=O)O [Compound 6-1, 3-((2,4-dichlorophenoxy)methyl)-2-methoxybenzoic acid]",–
100 to 500 nM,"NCc1cccc(COc2ccc(Cl)cc2Cl)c1 [Compound 7-1, (3-((2,4-dichlorophenoxy)methyl)phenyl)methanamine]",–
> 2500 nM,"Cc1ccc(COc2ccc(Cl)cc2Cl)cc1C(=O)O [Compound 8-1, 5-((2,4-dichlorophenoxy)methyl)-2-methylbenzoic acid]",–
< 100 nM,O=C(O)c1cc(C2CC2)cc(COc2ccc(C(F)(F)F)cc2Cl)n1 [Compound 8-3],–
< 100 nM,"O=C(O)c1cc(Br)cc(COc2ccc(C(F)(F)F)cc2Cl)n1 [Compound 9-1, 4-bromo-6-((2-chloro-4-(trifluoromethyl)phenoxy)methyl)picolinic acid]",–
100 to 500 nM,"O=C(O)c1cccc(CNc2ccc(Cl)cc2Cl)c1 [Compound 12-1, 3-(((2,4-dichlorophenyl)amino)methyl)benzoic acid]",–
< 100 nM,O=C(O)c1cccc(CNc2ccc(C(F)(F)F)cc2Cl)n1 [Compound 12-3],–
< 100 nM,O=C(O)c1cccc(CNc2ccc(C(F)(F)F)cc2Cl)c1 [Compound 12-4],–
1000 to 2500 nM,"OCc1cccc(COc2ccc(Cl)cc2Cl)c1 [Compound 14-1, (3-((2,4-dichlorophenoxy)methyl)phenyl)methanol]",–
100 to 500 nM,"N#Cc1cccc(COc2ccc(C(F)(F)F)cc2Cl)c1 [Compound 17-1, 3-((2-chloro-4-(trifluoromethyl)phenoxy)methyl)benzonitrile]",–
< 100 nM,Clc1ccc(OCc2cccc(-c3nnn[nH]3)c2)c(Cl)c1Cl [Compound 17-4],IC50 [2]: 5 nM; IC50 [3]: 6 nM; IC50 [4]: 8 nM; IC50 [5]: 6 nM; IC50 [6]: 7 nM
< 100 nM,c1cc(COc2ccc3ccccc3c2)cc(-c2nnn[nH]2)c1 [Compound 17-5],–
< 100 nM,FC(F)(F)c1ccc(OCc2cccc(-c3nnn[nH]3)n2)c(Cl)c1 [Compound 17-6],–
< 100 nM,Fc1cc(OCc2cccc(-c3nnn[nH]3)c2)ccc1C(F)(F)F [Compound 17-9],–
< 100 nM,FC(F)(F)Oc1ccc(OCc2cccc(-c3nnn[nH]3)c2)cc1Cl [Compound 17-10],–
500 to 1000 nM,FC(F)(F)c1ccc(OCc2ccc(-c3nnn[nH]3)cc2)c(Cl)c1 [Compound 17-12],–
< 100 nM,Fc1cc(COc2ccc(C(F)(F)F)cc2Cl)cc(-c2nnn[nH]2)c1 [Compound 17-14],–
< 100 nM,Fc1c(COc2ccc(C(F)(F)F)cc2Cl)cccc1-c1nnn[nH]1 [Compound 17-15],–
< 100 nM,Cc1cc(C(F)(F)F)ccc1OCc1cc(C#N)cc(C(=O)O)c1 [Compound 32-2],"IC50 (read-out: IC50 (10 μM BAR502) nM, MRGPRX4 antagonists versus 10 μM BAR502 agonist): 17 nM"
100 to 500 nM,"O=C(O)c1cccc(COc2ncc(C(F)(F)F)cc2Cl)c1 [Compound 35-1, 3-(((3-chloro-5-(trifluoromethyl)pyridin-2-yl)oxy)methyl)benzoic acid]",–
